Assay in all cases: DTP human tumour cell line panel, 48 h
The test system of assay [1] is CCRF-CEM leukemia.
Assay [2] relates to IGROV1 ovarian.
Assay [3] has as its system OVCAR-3 ovarian.
For assay [4], the system named is A549 NSCLC.
Assay [5] deals with HCT-116 colon.
Assay [6] has as its system SK-MEL-28 melanoma.
The subject of assay [7] is UO-31 renal.
The subject of assay [8] is RPMI-8226 leukemia.
The test system of assay [9] is SF-295 CNS.
For assay [10], the system named is MCF7 breast.
In assay [11] the test system is OVCAR-4 ovarian.
The test system of assay [12] is HL-60(TB) leukemia.
Assay [13] concerns SNB-75 CNS.
In assay [14] the test system is NCI-H226 lung.
Assay [15] deals with HOP-62 NSCLC.

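Method: 48-hour compound exposure of cells in 96-well plates, five concentrations, linear interpolation of endpoints. TGI is the concentration that stops growth completely.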 Where only a bound is given, the exact number is not on record here.

What is called TGI is the concentration giving total growth inhibition. A low value points to greater sensitivity of the cells. For `C[N+](C)(CCCCCC[N+](C)(C)CCCN1C(=O)c2cccc3cccc(c23)C1=O)CCCN1C(=O)c2cccc3cccc(c23)C1=O`, the TGI in assay [1], in assay [2], in assay [3], in [4], in assay [5] and in assay [6] was greater than 100 µM throughout. The TGI in assay [7], in [8], in [9], in assay [10], in assay [11] and in assay [12] was greater than 100 µM in each case.
For `C/C(=C/C(=O)Nc1ccccc1)Nc1onc(C)c1C`, the TGI in [1], in [2], in assay [3], in assay [4], in [13] and in assay [5] was greater than 100 µM in each case. The TGI in [6], in [14], in [7], in assay [8], in [9] and in assay [15] was greater than 100 µM each time. The TGI in [10], in assay [11] and in assay [12] was greater than 100 µM throughout.
On to `Cc1c(O)c(=O)ccn1CCN`, for which the TGI in assay [1], in [2], in assay [4], in [13], in assay [5] and in assay [6] was greater than 100 µM in each case. The TGI in assay [14], in assay [7], in assay [8] and in assay [11] was greater than 100 µM each time.
For the molecule `O=NN1C(c2ccccc2)CNC(=O)CC1c1ccccc1` (centres undefined), the TGI was greater than 100 µM in assay [1]; greater than 100 µM in assay [2]; greater than 92.7 µM in [3]; greater than 100 µM in [4]; greater than 67.9 µM in assay [13]; greater than 100 µM in assay [5]. Besides, the total growth inhibition concentration (TGI) in assay [6] was greater than 100 µM; in assay [14], greater than 100 µM; in [7], greater than 83.6 µM; in [8], greater than 100 µM; in [9] it was 98.8 µM; in assay [15] it was greater than 100 µM. For the same molecule, the TGI in assay [10] is greater than 100 µM; in assay [11], greater than 100 µM; in [12], greater than 68.8 µM.
As to `N#C/C(=C\c1ccncc1)c1csc2ccccc12`, the TGI was 55.8 µM in assay [1]; 97.4 µM in assay [2]; 42.9 µM in [3]; greater than 100 µM in assay [4]; 78.5 µM in assay [13]; 33.4 µM in assay [5]. Moreover, the TGI was greater than 100 µM in [6]; greater than 77.1 µM in assay [14]; greater than 83.2 µM in [7]; 52.3 µM in assay [8]; greater than 100 µM in [9]; 63.3 µM in assay [15]. Further, the TGI was greater than 96.7 µM in [10], greater than 100 µM in [11] and 35.5 µM in [12].
With `O=S(O)CCCCCSSc1ccccc1`, the TGI in [1] is 50.3 µM; in [3] it was greater than 100 µM; in assay [13], 99.5 µM; in assay [5] it was 70.2 µM; in assay [6], greater than 100 µM; in assay [7], greater than 100 µM. The TGI in [8] is 56.4 µM; in assay [15], greater than 100 µM; in assay [11], greater than 100 µM; in [12], 88.1 µM.
In the case of `Nc1nc(Nc2ccc(Cl)c(Cl)c2)nc2nc[nH]c12`, the TGI in [1] is 41 µM; in assay [2] it was 27 µM; in [3] it was 27 µM; in [4], 33.6 µM; in [13], 20.9 µM; in assay [5], 34.1 µM. Also, the TGI came to 50.2 µM in [14]; 21.3 µM in assay [7]; 62.8 µM in [8]; 35.7 µM in assay [9]; 26.1 µM in assay [15]; 45.6 µM in [10]. Besides, the TGI came out at 48.4 µM in assay [11] and 31.9 µM in assay [12].
On to `O=C1C(Cl)N(c2c(Cl)cccc2Cl)C1c1c[nH]c2ccccc12` (centres undefined), for which the TGI in assay [1], in assay [2], in [3], in [4], in [13] and in assay [5] was greater than 100 µM each time. The TGI in [6], in assay [7], in assay [8], in assay [9], in assay [15] and in assay [11] was greater than 100 µM throughout. The molecule further registered a TGI in [12] greater than 100 µM.
For the molecule `S=c1sc2c(s1)SC(c1ccccc1)CS2` (centres undefined), the TGI in [1] was greater than 100 µM; in assay [2], greater than 100 µM; in assay [3] it was greater than 100 µM; in assay [4] it was greater than 100 µM; in assay [13], greater than 94.2 µM; in assay [5], greater than 100 µM. For the same molecule, the TGI in assay [6], in [14], in assay [7], in [8], in assay [9] and in assay [15] was greater than 100 µM throughout. The TGI in assay [10] was greater than 100 µM; in [11] it was greater than 88.2 µM; in assay [12], greater than 100 µM.
With `Cc1ccc(/C=C2\Sc3scc(-c4ccccc4)[n+]3C2=O)cc1`, the TGI was 32.9 µM in assay [1]; greater than 56.8 µM in [2]; greater than 100 µM in assay [3]; greater than 84.3 µM in [4]; greater than 58.9 µM in assay [13]; greater than 52.1 µM in [5]. The TGI was greater than 100 µM in assay [6]; greater than 100 µM in assay [14]; 32 µM in [7]; 35.4 µM in assay [8]; greater than 70.3 µM in assay [9]; greater than 100 µM in assay [15]. Besides, the TGI in assay [10] was greater than 100 µM; in [11], greater than 81.1 µM; in assay [12], 5.31 µM.

The values are drawn from PubChem BioAssay (NCI).
